{"source": "patent US11472799B2", "about": "“Serine threonine kinase (AKT) degradation / disruption compounds and methods of use” (Icahn School of Medicine at Mount Sinai, priority 2018, dated 2022)"}
{"system": "AKT", "assay": "Western blot of AKT protein levels and downstream signaling in BT474 cells", "assay_type": "cell-based, human", "settings": "Western blot (FIGS. 1, 3, 4)", "summary_of_the_method": "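Lysates were immunoblotted with chemiluminescent detection for p-AKT Ser473, total AKT, p-S6 Ser240/244 and p-PRAS40 Thr246, using actin as loading control.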"}
{"compound": "NC1(C(=O)N[C@@H](CCN2CCN(C(=O)CCOCCOCCNc3cccc4c3C(=O)N(C3CCC(=O)NC3=O)C4=O)CC2)c2ccc(Cl)cc2)CCN(c2ncnc3[nH]ccc23)CC1", "note": "(stereo partly drawn) [XF050-30, 4-amino-N-((1S)-1-(4-chlorophenyl)-3-(4-(3-(2-(2-((2-(2,6-dioxopiperidin-3-yl)-1,3-dioxoisoindolin-4-yl)amino)ethoxy)ethoxy)propanoyl)piperazin-1-yl)propyl)-1-(7H-pyrrolo[2,3-d]pyrimidin-4-yl)piperidine-4-carboxamide]", "suppression of AKT protein level and AKT activity": "effective in suppressing both AKT protein level and AKT activity"}
{"compound": "Cc1ncsc1-c1ccc(CNC(=O)[C@@H]2C[C@@H](O)CN2C(=O)[C@@H](NC(=O)CCCCCCC(=O)N2CCN(CC[C@H](NC(=O)C3(N)CCN(c4ncnc5[nH]ccc45)CC3)c3ccc(Cl)cc3)CC2)C(C)(C)C)cc1", "note": "[XF050-18, 4-amino-N-((S)-1-(4-chlorophenyl)-3-(4-(8-(((S)-1-((2S,4R)-4-hydroxy-2-((4-(4-methylthiazol-5-yl)benzyl)carbamoyl)pyrrolidin-1-yl)-3,3-dimethyl-1-oxobutan-2-yl)amino)-8-oxooctanoyl)piperazin-1-yl)propyl)-1-(7H-pyrrolo[2,3-d]pyrimidin-4-yl)piperidine-4-carboxamide]", "suppression of AKT protein level and AKT activity": "effective in suppressing both AKT protein level and AKT activity"}
{"compound": "Cc1ncsc1-c1ccc(CNC(=O)[C@@H]2C[C@@H](O)CN2C(=O)[C@@H](NC(=O)CCCCCC(=O)N2CCN(CC[C@H](NC(=O)C3(N)CCN(c4ncnc5[nH]ccc45)CC3)c3ccc(Cl)cc3)CC2)C(C)(C)C)cc1", "note": "[XF050-17, 4-amino-N-((S)-1-(4-chlorophenyl)-3-(4-(7-(((S)-1-((2S,4R)-4-hydroxy-2-((4-(4-methylthiazol-5-yl)benzyl)carbamoyl)pyrrolidin-1-yl)-3,3-dimethyl-1-oxobutan-2-yl)amino)-7-oxoheptanoyl)piperazin-1-yl)propyl)-1-(7H-pyrrolo[2,3-d]pyrimidin-4-yl)piperidine-4-carboxamide]", "suppression of AKT protein level and AKT activity": "effective in suppressing both AKT protein level and AKT activity"}
{"compound": "Cc1ncsc1-c1ccc(CNC(=O)[C@@H]2C[C@@H](O)CN2C(=O)[C@@H](NC(=O)CCCCCCCCC(=O)N2CCN(CC[C@H](NC(=O)C3(N)CCN(c4ncnc5[nH]ccc45)CC3)c3ccc(Cl)cc3)CC2)C(C)(C)C)cc1", "note": "[XF050-20, 4-amino-N-((S)-1-(4-chlorophenyl)-3-(4-(10-(((S)-1-((2S,4R)-4-hydroxy-2-((4-(4-methylthiazol-5-yl)benzyl)carbamoyl)pyrrolidin-1-yl)-3,3-dimethyl-1-oxobutan-2-yl)amino)-10-oxodecanoyl)piperazin-1-yl)propyl)-1-(7H-pyrrolo[2,3-d]pyrimidin-4-yl)piperidine-4-carboxamide]", "suppression of AKT protein level and AKT activity": "effective in suppressing both AKT protein level and AKT activity"}
{"compound": "Cc1ncsc1-c1ccc(CNC(=O)[C@@H]2C[C@@H](O)CN2C(=O)[C@@H](NC(=O)CCCCCCCCCNC(=O)CCNC[C@@H](C(=O)N2CCN(c3ncnc4c3[C@H](C)C[C@H]4O)CC2)c2ccc(Cl)cc2)C(C)(C)C)cc1", "note": "[XF038-165A, (2S,4R)-1-((S)-2-(10-(3-(((S)-2-(4-chlorophenyl)-3-(4-((5R,7R)-7-hydroxy-5-methyl-6,7-dihydro-5H-cyclopenta[d]pyrimidin-4-yl)piperazin-1-yl)-3-oxopropyl)amino)propanamido)decanamido)-3,3-dimethylbutanoyl)-4-hydroxy-N-(4-(4-methylthiazol-5-yl)benzyl)pyrrolidine-2-carboxamide]", "suppression of AKT protein level and AKT activity": "effective in suppressing both AKT protein level and AKT activity"}
{"compound": "NC1(C(=O)N[C@@H](CCN2CCN(C(=O)CCOCCOCCOCCNc3cccc4c3C(=O)N(C3CCC(=O)NC3=O)C4=O)CC2)c2ccc(Cl)cc2)CCN(c2ncnc3[nH]ccc23)CC1", "note": "(stereo partly drawn) [XF050-31, 4-amino-N-((1S)-1-(4-chlorophenyl)-3-(4-(3-(2-(2-(2-((2-(2,6-dioxopiperidin-3-yl)-1,3-dioxoisoindolin-4-yl)amino)ethoxy)ethoxy)ethoxy)propanoyl)piperazin-1-yl)propyl)-1-(7H-pyrrolo[2,3-d]pyrimidin-4-yl)piperidine-4-carboxamide]", "suppression of AKT protein level and AKT activity": "effective in suppressing both AKT protein level and AKT activity"}
{"compound": "C[C@@H]1C[C@@H](O)c2ncnc(N3CCN(C(=O)[C@H](CNCCC(=O)NCCCCCCCNc4cccc5c4C(=O)N(C4CCC(=O)NC4=O)C5=O)c4ccc(Cl)cc4)CC3)c21", "note": "(stereo partly drawn) [XF048-5, 3-(((S)-2-(4-chlorophenyl)-3-(4-((5R,7R)-7-hydroxy-5-methyl-6,7-dihydro-5H-cyclopenta[d]pyrimidin-4-yl)piperazin-1-yl)-3-oxopropyl)amino)-N-(7-((2-(2,6-dioxopiperidin-3-yl)-1,3-dioxoisoindolin-4-yl)amino)heptyl)propanamide]", "suppression of AKT protein level and AKT activity": "effective in suppressing both AKT protein level and AKT activity"}
{"system": "AKT", "assay": "Western blot of AKT protein levels in PC-3 cells", "assay_type": "cell-based, human", "settings": "1 μM (FIGS. 11 and 12)", "experimental": "(§1) PC-3, U87MG, HCC1143, MDA-MB-231, MDA-MB-468, BT474 and MCF-7 cell lines were purchased from ATCC. Cell lines were regularly tested in the lab for mycoplasma. All cells were cultured at 37° C. and 5% CO2. PC-3, U87MG, MDA-MB-231, MCF-7 and BT474 cells were cultured in 1×DMEM (Corning, 10-013-CV) with 10% fetal bovine serum (Atlanta Biologicals S11150) and 1× Penicillin/Streptomycin. HCC1143 cells were cultured in RPMI (Corning, 10-040-CV) medium with 10% fetal bovine serum (Atlanta Biologicals S11150) and 1× Penicillin/Streptomycin. Cells were split using 0.05% or 0.25% trypsin (Corning 25-051-Cl or 25-053-Cl, respectively) before they reached full confluence and media was changed every 3-4 days. Cells were treated with compounds individually at different concentrations for 24 hrs. Cells were treated with DMSO, VHL, or PML alone as controls.\n(§2) Cells were lysed in 2× sample buffer (125 mM Tris-HCl at pH 6.8, 10% βME, 2% SDS, 20% glycerol, 0.05% Bromophenol Blue, 8 M urea). Protein lysates were loaded into 4-12% Bis-Tris gels and resolved by electrophoresis. Samples were then blotted on PVDF membrane (Millipore IPVH00010) using the wet transfer technique (Invitrogen). Membranes were blocked in 5% milk-TBST for 1 hour, washed in TBST for 10 min, and incubated in primary antibody in 5% milk-TBST or 5% BSA-TBST at 4° C. for 16 h. Membranes were rinsed (3×6 min) in TBST and incubated in horseradish peroxidase-conjugated secondary antibodies in 5% milk-TBST for 1 hour and rinsed again in TBST (3×6 min). Membranes were visualized using the chemiluminescence system (Thermo 34080, 37075) on autoradiography film (Denville E3018). Primary Antibodies: R-actin (Sigma A5316), p-AKT (Ser473 CST-9721), total AKT (CST-9272), p-S6 (Ser240/244, CST-5364), p-PRAS40 (Thr246, CST-2997). Secondary Antibodies: Mouse (Thermo 31432), Rabbit (Thermo 31460)."}
{"compound": "Cc1ncsc1-c1ccc(CNC(=O)[C@@H]2C[C@@H](O)CN2C(=O)[C@@H](NC(=O)CCCCCCCCCCNC(=O)CCc2cccc(-c3ccc4nc(-c5cccnc5N)n(-c5ccc(C6(N)CCC6)cc5)c4n3)c2)C(C)(C)C)cc1", "note": "[XF067-18, (2S,4R)-1-((S)-2-(11-(3-(3-(3-(4-(1-aminocyclobutyl)phenyl)-2-(2-aminopyridin-3-yl)-3H-imidazo[4,5-b]pyridin-5-yl)phenyl)propanamido)undecanamido)-3,3-dimethylbutanoyl)-4-hydroxy-N-(4-(4-methylthiazol-5-yl)benzyl)pyrrolidine-2-carboxamide]", "suppression of AKT protein level and AKT activity": "effective in suppressing AKT protein level and AKT activity"}
{"compound": "CCn1c(-c2nonc2N)nc2c(C#CC(C)(C)O)ncc(OCCCNCCCC(=O)NCCCCCCCCCCC(=O)N[C@H](C(=O)N3C[C@H](O)C[C@H]3C(=O)NCc3ccc(-c4scnc4C)cc3)C(C)(C)C)c21", "note": "[XF067-101, (2S,4R)-1-((S)-2-(11-(4-((3-((2-(4-amino-1,2,5-oxadiazol-3-yl)-1-ethyl-4-(3-hydroxy-3-methylbut-1-yn-1-yl)-1H-imidazo[4,5-c]pyridin-7-yl)oxy)propyl)amino)butanamido)undecanamido)-3,3-dimethylbutanoyl)-4-hydroxy-N-(4-(4-methylthiazol-5-yl)benzyl)pyrrolidine-2-carboxamide]", "suppression of AKT protein level and AKT activity": "effective in suppressing AKT protein level and AKT activity"}
{"compound": "Cc1ncsc1-c1ccc(CNC(=O)[C@@H]2C[C@@H](O)CN2C(=O)[C@@H](NC(=O)CCCCCCCNC(=O)CCc2cccc(-c3ccc4nc(-c5cccnc5N)n(-c5ccc(C6(N)CCC6)cc5)c4n3)c2)C(C)(C)C)cc1", "note": "[XF067-15, (2S,4R)-1-((S)-2-(8-(3-(3-(3-(4-(1-aminocyclobutyl)phenyl)-2-(2-aminopyridin-3-yl)-3H-imidazo[4,5-b]pyridin-5-yl)phenyl)propanamido)octanamido)-3,3-dimethylbutanoyl)-4-hydroxy-N-(4-(4-methylthiazol-5-yl)benzyl)pyrrolidine-2-carboxamide]", "suppression of AKT protein level and AKT activity": "effective in suppressing AKT protein level and AKT activity"}
{"compound": "Cc1ncsc1-c1ccc(CNC(=O)[C@@H]2C[C@@H](O)CN2C(=O)[C@@H](NC(=O)CCCCCCCCCNC(=O)CCc2cccc(-c3ccc4nc(-c5cccnc5N)n(-c5ccc(C6(N)CCC6)cc5)c4n3)c2)C(C)(C)C)cc1", "note": "[XF067-17, (2S,4R)-1-((S)-2-(10-(3-(3-(3-(4-(1-aminocyclobutyl)phenyl)-2-(2-aminopyridin-3-yl)-3H-imidazo[4,5-b]pyridin-5-yl)phenyl)propanamido)decanamido)-3,3-dimethylbutanoyl)-4-hydroxy-N-(4-(4-methylthiazol-5-yl)benzyl)pyrrolidine-2-carboxamide]", "suppression of AKT protein level and AKT activity": "effective in suppressing AKT protein level and AKT activity"}
{"system": "AKT", "assay": "Western blot of AKT protein levels in PC-3 cells", "assay_type": "cell-based, human", "settings": "1 μM for 24 h (FIGS. 11, 12)", "experimental": "as §1, §2"}
{"compound": "CCn1c(-c2nonc2N)nc2c(C#CC(C)(C)O)ncc(OC[C@H]3CCCNC3)c21", "note": "[GSK690693, 4-(2-(4-amino-1,2,5-oxadiazol-3-yl)-1-ethyl-7-{[(3S)-3-piperidinylmethyl]oxy}-1H-imidazo[4,5-c]pyridin-4-yl)-2-methyl-3-butyn-2-ol, reference compound]", "AKT protein levels": "no effect"}
